From US11634404B2 (priority 2016, dated 2023)

Tests used:
Type in all cases: cell-based
[1] = target: D3R (Homo sapiens (Human), UniProt P35462); assay: BRET arrestin recruitment assay; conditions: orthogonal assay
[2] = target: panel of 168 GPCRs (Homo sapiens, UniProt O43614); conditions: GPCR HCRTR2; agonist, 10 μM
[3] = target: panel of 168 GPCRs (Homo sapiens, UniProt O95977); conditions: GPCR EDG6; agonist, 10 μM
[4] = target: panel of 168 GPCRs (Homo sapiens, UniProt P0DMS8); conditions: GPCR ADORA3; agonist, 10 μM
[5] = target: panel of 168 GPCRs (Homo sapiens, UniProt P11229); conditions: GPCR CHRM1; agonist, 10 μM
[6] = target: panel of 168 GPCRs (Homo sapiens, UniProt P21452); conditions: GPCR TACR2; agonist, 10 μM
[7] = target: panel of 168 GPCRs (Homo sapiens, UniProt P21730); conditions: GPCR C5AR1; agonist, 10 μM
[8] = target: panel of 168 GPCRs (Homo sapiens, UniProt P28223); conditions: GPCR HTR2A; agonist, 10 μM
[9] = target: panel of 168 GPCRs (Homo sapiens, UniProt P28335); conditions: GPCR HTR2C; agonist, 10 μM
panel of 168 GPCRs (Homo sapiens, UniProt P28335), sequence (P28335 33-458 limits assumed): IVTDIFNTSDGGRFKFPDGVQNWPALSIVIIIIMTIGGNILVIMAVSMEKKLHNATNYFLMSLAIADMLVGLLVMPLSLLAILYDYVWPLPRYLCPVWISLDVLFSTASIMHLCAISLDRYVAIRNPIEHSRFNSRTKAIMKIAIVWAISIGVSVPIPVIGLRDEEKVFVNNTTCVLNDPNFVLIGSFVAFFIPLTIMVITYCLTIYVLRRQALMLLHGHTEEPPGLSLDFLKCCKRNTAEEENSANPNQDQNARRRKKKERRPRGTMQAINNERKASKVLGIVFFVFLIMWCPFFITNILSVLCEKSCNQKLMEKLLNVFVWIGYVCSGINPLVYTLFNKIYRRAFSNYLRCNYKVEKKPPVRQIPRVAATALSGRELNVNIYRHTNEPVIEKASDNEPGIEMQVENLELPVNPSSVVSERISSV

[10] = target: panel of 168 GPCRs (Homo sapiens, UniProt P32239); conditions: GPCR CCKBR; agonist, 10 μM
[11] = target: panel of 168 GPCRs (Homo sapiens, UniProt P35346); conditions: GPCR SSTR5; agonist, 10 μM
[12] = target: panel of 168 GPCRs (Homo sapiens, UniProt P35408); conditions: GPCR PTGER4; agonist, 10 μM
[13] = target: panel of 168 GPCRs (Homo sapiens, UniProt P41597); conditions: GPCR CCR2; agonist, 10 μM
[14] = target: panel of 168 GPCRs (Homo sapiens, UniProt P47898); conditions: GPCR HTR5A; agonist, 10 μM
[15] = target: panel of 168 GPCRs (Homo sapiens, UniProt P48146); conditions: GPCR NPBWR2; agonist, 10 μM
[16] = target: panel of 168 GPCRs (Homo sapiens, UniProt P51684); conditions: GPCR CCR6; agonist, 10 μM
[17] = target: panel of 168 GPCRs (Homo sapiens, UniProt P51685); conditions: GPCR CCR8; agonist, 10 μM
[18] = target: panel of 168 GPCRs (Homo sapiens, UniProt Q15077); conditions: GPCR P2RY6; agonist, 10 μM
[19] = target: panel of 168 GPCRs (Homo sapiens, UniProt Q16581); conditions: GPCR C3AR1; agonist, 10 μM
[20] = target: panel of 168 GPCRs (Homo sapiens, UniProt Q96RI0); conditions: GPCR F2RL3; agonist, 10 μM
panel of 168 GPCRs (Homo sapiens, UniProt Q96RI0), sequence (Q96RI0 18-385 limits assumed): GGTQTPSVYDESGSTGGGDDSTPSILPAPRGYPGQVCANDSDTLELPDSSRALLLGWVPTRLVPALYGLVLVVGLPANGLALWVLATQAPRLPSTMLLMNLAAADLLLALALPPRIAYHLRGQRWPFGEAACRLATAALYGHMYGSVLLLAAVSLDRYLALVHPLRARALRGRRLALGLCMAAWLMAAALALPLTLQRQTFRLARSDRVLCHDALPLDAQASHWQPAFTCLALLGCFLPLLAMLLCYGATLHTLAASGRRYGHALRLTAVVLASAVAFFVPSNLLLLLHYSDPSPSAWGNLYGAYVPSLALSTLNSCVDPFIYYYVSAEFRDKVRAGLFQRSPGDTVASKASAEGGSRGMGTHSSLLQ

[21] = target: panel of 168 GPCRs (Homo sapiens, UniProt Q99500); conditions: GPCR EDG3; agonist, 10 μM
[22] = target: panel of 168 GPCRs (Homo sapiens, UniProt Q9UBY5); conditions: GPCR EDG7; agonist, 10 μM
[23] = target: panel of 168 GPCRs (Homo sapiens, UniProt Q9Y5N1); conditions: GPCR HRH3; agonist, 10 μM
[24] = tested on: panel of 168 GPCRs; conditions: GPCR DRD2S; agonist, 10 μM
[25] = Cytotoxicity screening panel, High Content Screening; conditions: human, HepG2 cells; Mitochondrial Membrane Potential, response direction ↓
Method: (§1) HepG2 cells were plated on 384-well tissue culture treated black walled clear bottomed polystyrene plates. The cells were dosed with test compound at a range of concentrations. At the end of the incubation period, the cells were loaded with the relevant dye/antibody for each cell health marker. The plates were then scanned using an automated fluorescent cellular imager, ArrayScan® (Thermo Scientific Cellomics). Cytotoxicity was assessed using a multi-parametric approach using High Content Screening (HCS). The following parameters were screened.
(§2) Nuclear size: An increase in nuclear area can indicate necrosis or G2 cell cycle arrest and a decrease can indicate apoptosis.
(§3) DNA structure: An increase in DNA structure can indicate chromosomal instability and DNA fragmentation.
(§4) Cell membrane permeability: An increase in cell membrane permeability is a general indicator of cell death.
(§5) Mitochondrial mass: A decrease in mitochondrial mass indicates loss of total mitochondria and an increase implies mitochondrial swelling or an adaptive response to cellular energy demands.
(§6) Mitochondrial membrane potential (Δψm): A decrease indicates a loss of mitochondrial membrane potential and mitochondrial toxicity, as well as a potential role in apoptosis signaling, an increase in mitochondrial membrane potential indicates an adaptive response to cellular energy demands.
(§7) Cytochrome c: An increase in cytochrome c release is one of the hallmarks of the apoptosis cascade.

[26] = tested on: HepG2 cells; assay: as above
Method: as §1, §2, §3, §4, §5, §6, §7

[27] = Cell Membrane Permeability, response direction ↑
[28] = Cytochrome c, response direction ↑
[29] = DNA Structure, response direction ↑
[30] = Mitochondrial Mass, response direction ↑
[31] = Nuclear Size, response direction ↑
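For β-Arrestin Recruitment activity in this document: recruitment activity reported in % for each GPCR in the panel.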

D3R, sequence (P35462 whole entry): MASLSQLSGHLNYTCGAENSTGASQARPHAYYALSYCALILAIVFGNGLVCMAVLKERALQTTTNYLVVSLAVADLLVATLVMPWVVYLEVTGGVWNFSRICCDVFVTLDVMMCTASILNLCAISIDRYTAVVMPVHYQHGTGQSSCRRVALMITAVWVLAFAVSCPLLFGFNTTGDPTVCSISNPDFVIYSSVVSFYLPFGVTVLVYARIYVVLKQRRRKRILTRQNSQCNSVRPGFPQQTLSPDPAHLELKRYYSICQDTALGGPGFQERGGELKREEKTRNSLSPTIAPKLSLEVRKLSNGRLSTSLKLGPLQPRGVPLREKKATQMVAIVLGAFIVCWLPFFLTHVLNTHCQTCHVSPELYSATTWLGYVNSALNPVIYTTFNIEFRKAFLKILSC

COc1ccc(OCCN2CCN(C(=O)c3cc4ccccc4[nH]3)CC2)cc1 [Compound 1, (1H-indol-2-yl)(4-(2-(4-methoxyphenoxy)ethyl)piperazin-1-yl)methanone]
agonist activity, β-arrestin recruitment (BRET) [1]: potent and fully efficacious D3R-selective agonist | β-Arrestin Recruitment activity [2]: 0% | β-Arrestin Recruitment activity [3]: 17% | β-Arrestin Recruitment activity [4]: 8% | β-Arrestin Recruitment activity [5]: 5% | β-Arrestin Recruitment activity [6]: 3% | β-Arrestin Recruitment activity [7]: 0% | β-Arrestin Recruitment activity [8]: 4% | β-Arrestin Recruitment activity [9]: 6% | β-Arrestin Recruitment activity [10]: 4% | β-Arrestin Recruitment activity [11]: 3% | β-Arrestin Recruitment activity [12]: 6% | β-Arrestin Recruitment activity [13]: 4% | β-Arrestin Recruitment activity [14]: 3% | β-Arrestin Recruitment activity [15]: 3% | β-Arrestin Recruitment activity [16]: 0% | β-Arrestin Recruitment activity [17]: 0% | β-Arrestin Recruitment activity [18]: 6% | β-Arrestin Recruitment activity [19]: 0% | β-Arrestin Recruitment activity [20]: 4% | β-Arrestin Recruitment activity [21]: 4% | β-Arrestin Recruitment activity [22]: 6% | β-Arrestin Recruitment activity [23]: 3% | β-Arrestin Recruitment activity [24]: 43% | AC50 [25]: > 50 µM | AC50 [26, 27]: > 50 µM | MEC [26, 27]: 8.58 µM | AC50 [26, 28]: > 50 µM | MEC [26, 28]: 6.03 µM | AC50 [26, 29]: > 50 µM | MEC [26, 29]: 13.9 µM | AC50 [26, 30]: > 50 µM | MEC [26, 30]: 11.9 µM | MEC ([26]; Mitochondrial Membrane Potential, response direction ↓): 9.28 µM | AC50 [26, 31]: > 50 µM | MEC [26, 31]: 12.0 µM
